Laboratory results: US12539284B2, “Aminoxy acid-based anti-cancer stem cell compounds and methods thereof” (Westlake University, priority 2019, dated 2026)
“Also recorded” adds a separate entry of the source. Like-named read-outs stand apart in the source and are kept apart here.

How the values were obtained:
HEY A8 cells [1] = test: Sphere formation in suspension culture after treatment; assay type: cell-based, human; conditions: 15 or 30 μM for 48 h, 3 days recovery, 5 days sphere formation
Experimental: Hey A8 cells were treated with compounds DMSO sff-2-112 (“Example 1”) or sff-2-132 (“Example 4”) at the concentration of 15 or 30 μM for 48 h. Then cells were allowed to recover and grow in full medium in cell culture dishes for 3 days. After that, cells at the density of 5×10^4 cells/mL were transferred into low attachment dishes for 5 days to allow sphere formation. The number of spheres in each dish were counted.

HEY A8 cells [2] = test: Superoxide production (HKSOX-2m fluorescence); assay type: cell-based, human; conditions: 5 μM, within 30 min
Experimental: The ability of compound sff-2-112 (“Example 1”) or sff-2-132 (“Example 4”) to induce ROS production was also evaluated on HEY A8 cells (FIG. 9). The ROS production was monitored by superoxide fluorescent probe HKSOX-2m. The increase in fluorescence intensity indicated superoxide production. (n=50-100 cells).
A suspension of HEY A8 cells at the concentration of 5×10^4 cells/mL in DMEM medium were seeded into 30-mm cell culture dishes with glass bottom (MatTek). Cells were incubated at 37° C. in a humidified atmosphere containing 5% CO2 for 24 h. Medium was aspirated and cells was washed with PBS buffer twice. Then 1 mL HBSS buffer containing 4 μM HKSOX-2m was added. Cells were incubated at 37° C. for 30 min before the buffer was aspirated and washed twice with HBSS buffer. Cells were imaged in 0.8 mL HBSS buffer. Fluorescence was monitored by confocal microscope (ZEISS LSM 710; Red channel: λex=543 nm). At t=180 s, compound in 0.2 mL HBSS buffer was added to give the final concentration of 5 μM. Quantitative data were obtained using the ZEN and GraphPad Prism software.

HEK293 = test: Toxicity against normal cell line HEK293; assay type: cell-based
Source text: Fourteen compounds including aminoxy acid monomers and dipeptides have been identified to show toxicity against HEY A8 CSCs. The half maximal inhibitory concentration (IC50) values of compounds sff-2-112, sff-2-124, sff-2-132 and sff-2-100 towards adherent cancer HEY A8, SKOV3 cells and CSCs were further determined. […] Especially compound sff-2-132, its selectivity to CSCs is up to 60-fold higher than that to cancer cells. Their toxicity against other normal cell lines NIH3T3, HEK293 and MDCK were also tested and the IC50 values were summarized in Table 1.

HEY A8 CSCs [3] = test: Apoptosis, Annexin V / PI flow cytometry, CSCs; assay type: cell-based, human; conditions: 5 μM, 2 days; DMSO 4.92%
Experimental: A suspension of HEY A8 cells at the concentration of 5×10^4 cells/mL in DMEM medium were seeded into 60-mm cell culture dishes. Cells were incubated at 37° C. in a humidified atmosphere containing 5% CO2 for 24 h followed by the addition of 4 mL fresh medium or medium containing compound sff-2-112 (“Example 1”) or sff-2-132 (“Example 4”) at different concentration. Medium containing 0.1% DMSO was used as negative control. After 2 days, the medium was aspirated and cells were washed with cold PBS twice, and then stained with PI and Annexin V according to the manufacture's instruction (Dead Cell Apoptosis Kit with Annexin V Alexa Fluor™ 488 & Propidium Iodide, Thermo Fisher). Cells were analyzed by flow cytometry (BD FACS CantoII Analyzer).

HEY A8 CSCs [4] = test: Immunoblotting of apoptosis associated proteins PARP, Caspase 3, Caspase 9; assay type: cell-based, human; conditions: 48 h; CSCs at 10-fold lower concentration than cancer cells
Experimental: For immunostaining experiment, cells were treated with compound sff-2-112 (“Example 1”) or compound sff-2-132 (“Example 4”) at different concentration for 48 h, then washed twice with PBS buffer and lysed with 2×SDS buffer with 0.1% Benzonase. Protein extracts were quantified by Pierce BCA Protein Assay Kit with a Nanodrop 2000 (Thermo Fisher Scientific) according to the manufacture's instruction. Protein lysates (˜50 μg/lane) were resolved by SDS-PAGE and transferred onto PVDF membranes. Membranes were incubated with membrane blocking solution (Thermo Fisher Scientific) for 1 h. The blots were then probed with the relevant primary antibodies in blocking solution at 4° C. overnight with gentle agitation. Membranes were washed with 0.1% Tween 20/TBS for 5 min three times and were incubated with Horseradish Peroxidase (HRP) conjugated secondary antibodies for 1 h at room temperature. Antigens were detected by SuperSignal West Pico PLUS Chemiluminescent Substrate (Thermo Fisher Scientific). Imaging was performed using a ChemiDoc™ XRS+ System (Bio-Rad).

SKOV3 CSCs (SKOV3 SP) = test: Cell viability (CellTiter-Glo) on SKOV3 spheres (CSCs); assay type: cell-based, human; conditions: read-out: IC50 Cancer Stem Cell SKOV3 SP
Experimental: (§1) Cell Cultures Human ovarian carcinoma cell lines HEY A8 and SKOV3 were gifts from Professor Alice Wong's group (The University of Hong Kong). Cells were grown in Dulbecco's Modified Eagle (DMEM) medium supplemented with 10% FBS and 1% penicillin/streptomycin at 37° C. in a humidified atmosphere containing […] CO2. Isolation and culture of spheres were performed in serum-free stem-cell-selective condition as described in literature Ip etl. Oncogene 2014, 5, 9133-9149. Briefly, 1-2 weeks after plating, non-adherent spherical clusters of cells could be observed and were separated from single cells by low speed centrifugation. After 8th to 10th passages, the non-adherent spherical clusters of cells appeared as distinct spheres. Using this selection condition, HEY A8 spheres (HEY A8 SP) or SKOV3 spheres (SKOV3 SP) could be enzymatically dissociated and reformed into spheres within 3 days under stem-cell-selective condition. To allow differentiation, dissociated sphere cells were plated on tissue culture plates in medium (MCDB 105:M199=1:1) supplemented with 10% FBS and 1% PS.
HEY A8 SP cells or SKOV3 SP cells (5×10^4) were plated in triplicate in 10 mL serum-free MCDB105 medium in 100-mm Petri dish for 7 days to form spheres. […] After that, the reagent was transferred into 96-well plates and cell viability was measured using a microplate reader (SpectraMax 340PC 384, Molecular Devices).

HEY A8 cancer cells = test: Cell viability (CellTiter-Glo) on adherent HEY A8 cancer cells; assay type: cell-based, human; conditions: read-out: IC50 Cancer Cell HeyA8
Experimental: as §1
HEY A8 or SKOV3 cancer Cells were plated in triplicate in 0.1 mL full medium in 96-well plates for 24 h. After that, the medium was changed to the fresh prepared medium with various concentrations of compounds. Cells were incubated for another 48 h. Then the cell viability was measured by CellTiter-Glo® Luminescent Cell Viability reagent according to the manufacture's instruction. The luminescence at 550 nm was measured using a microplate reader (SpectraMax 340PC 384, Molecular Devices).

Question: How did the “sphere forming ability / number of spheres relative to controls” value (HEY A8 cells [1]) turn out when O=C(NO[C@H](COCc1ccccc1)C(=O)Nc1ccccc1)c1cc(C(F)(F)F)cc(C(F)(F)F)c1 [sff-2-112] was run?
Answer: The value was “significant decrease in the number of spheres; also recorded: significantly reduced sphere forming ability”.

Question: And the “increasement of superoxide production” value (HEY A8 cells [2])?
Answer: Its value is “about 2 fold”.

Question: And the IC50 (HEK293)?
Answer: Its IC50 is 51 ± 1 µM.

Question: What about the “Annexin V positive cells, CSCs” value (HEY A8 CSCs [3]) of the same compound?
Answer: Its value is 21.0%.

Question: And the “activation of PARP1, Caspase 3 and Caspase 9” value (HEY A8 CSCs [4])?
Answer: Its value is “activation of protein PARP1, Caspase 3 and Caspase 9 was also observed in CSCs”.

Question: And the IC50 (SKOV3 CSCs (SKOV3 SP); 48 h incubation)?
Answer: The IC50 was 0.9 ± 0.9 µM.

Question: And the IC50 (HEY A8 cancer cells; 48 h incubation)?
Answer: The IC50 was 23.4 ± 2.1 µM.

Question: Which results are given for CC(C)(C)OC(=O)[C@@H](COCc1ccccc1)ONC(=O)c1cc(C(F)(F)F)cc(C(F)(F)F)c1 [sff-2-132]?
Answer: sphere forming ability / number of spheres relative to controls (HEY A8 cells [1]): significant decrease in the number of spheres; also recorded: significantly reduced sphere forming ability; increasement of superoxide production (HEY A8 cells [2]): about 2 fold; IC50 (HEK293; Homo sapiens, HEK293): 70.3 ± 1.7 µM; Annexin V positive cells, CSCs (HEY A8 CSCs [3]): 30.4%; activation of PARP1, Caspase 3 and Caspase 9 (HEY A8 CSCs [4]): activation of protein PARP1, Caspase 3 and Caspase 9 was also observed in CSCs; IC50 (SKOV3 CSCs (SKOV3 SP); Homo sapiens, SK-OV-3, 48 h incubation): 1 ± 0.9 µM; IC50 (HEY A8 cancer cells; Homo sapiens, HEY A8, 48 h incubation): 52.9 ± 1.9 µM
